Columns and labels:
[1] = Pharmacokinetics in mouse serum and brain; format: in vivo; settings: 100 mg/kg IP
Description: Pharmacokinetics on 2MeGlu and 2MeGln in mice
C57BL/6 mice (Jackson Laboratory cat. no. 000664) were administered 100 mg/kg IP. At the times indicated, mice were deeply anesthetized by isoflurane, blood was collected by cardiac puncture and left to clot on ice, and then animals were perfused with cold PBS until viscera […]
dissected and one half frozen at –80 °C until homogenization in ice cold PBS (pH 7.4) using a probe ultrasonic homogenizer (Branson Sonifier 450, Power: 5, Cycle: 30%, time: 10 s) on ice.
The lysate was centrifuged (2,500g for 15 min at 4 °C) and the supernatant was assayed using Pierce BCA Protein Assay Kit (23225) using BioTek Epoch plate spectrophotometer by recording absorbance at 562 nm.
Two or three 10 μL aliquots of the homogenate were transferred to a 96 well plate and extracted with 190 μL of 60% acetonitrile in water containing 10 μM GABA-d6 or 10 μM Glu-d5 and Gln-d5 as internal standards. 40 μL aliquots of the extracts were then diluted with 120 μL of acetonitrile and prepared for LC-MS/MS analysis. Brain and serum half-lives were calculated using the ‘PKNCA’ package for R. Endogenous levels of Glu, Gln and GABA were determined in the brains of mice used in the pharmacokinetics experiment. MRM transitions specific for Glu, Gln and GABA were monitored simultaneously. […]

[2] = system: NMDA nonspecific; experiment: Nonspecific NMDA binding assay; settings: 100 μM, triplicate; rat
Description: Nonspecific AMPA, kainate and NMDA binding assays were performed by Eurofins Discovery
(Cerep) using rat cerebral cortex membranes and radiolabeled [3H]AMPA, [3H]kainic acid and
[3H]CGP 39653, respectively. […]

[3] = biological target: T1, GABAA α3β3γ2 (Homo sapiens, UniProt P28472+P34903); experiment: FLIPR functional receptor assay, GABAA α3β3γ2; format: cell-based; settings: top test concentration 1 mM; for EC50: agonist mode
T1 construct: host or cells: HEK 293
T1 sequence (P34903 29-492): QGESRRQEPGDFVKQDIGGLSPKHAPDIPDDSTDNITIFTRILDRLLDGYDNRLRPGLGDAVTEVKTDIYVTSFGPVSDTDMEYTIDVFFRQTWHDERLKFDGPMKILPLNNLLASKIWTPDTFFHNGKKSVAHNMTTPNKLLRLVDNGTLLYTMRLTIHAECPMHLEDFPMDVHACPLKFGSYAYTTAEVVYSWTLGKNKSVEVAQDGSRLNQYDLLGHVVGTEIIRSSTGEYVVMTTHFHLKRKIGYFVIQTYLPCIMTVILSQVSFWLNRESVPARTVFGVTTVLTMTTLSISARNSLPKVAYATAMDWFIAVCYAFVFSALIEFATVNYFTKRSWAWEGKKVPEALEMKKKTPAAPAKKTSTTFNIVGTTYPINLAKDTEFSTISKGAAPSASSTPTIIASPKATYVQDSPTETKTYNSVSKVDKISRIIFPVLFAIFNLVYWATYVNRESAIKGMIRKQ
T1 sequence (P28472 26-473): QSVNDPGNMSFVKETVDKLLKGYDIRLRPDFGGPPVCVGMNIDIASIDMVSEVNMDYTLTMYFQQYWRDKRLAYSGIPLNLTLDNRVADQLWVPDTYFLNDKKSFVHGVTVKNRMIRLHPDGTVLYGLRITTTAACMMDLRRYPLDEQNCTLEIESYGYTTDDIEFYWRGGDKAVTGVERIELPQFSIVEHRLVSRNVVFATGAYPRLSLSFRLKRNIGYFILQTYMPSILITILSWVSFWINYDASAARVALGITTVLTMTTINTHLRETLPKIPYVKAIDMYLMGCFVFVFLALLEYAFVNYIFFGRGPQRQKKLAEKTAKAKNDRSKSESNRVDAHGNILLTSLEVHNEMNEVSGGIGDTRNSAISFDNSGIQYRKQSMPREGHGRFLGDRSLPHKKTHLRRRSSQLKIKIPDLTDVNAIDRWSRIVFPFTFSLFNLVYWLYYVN
T1 sequence (P18507 40-475 partner): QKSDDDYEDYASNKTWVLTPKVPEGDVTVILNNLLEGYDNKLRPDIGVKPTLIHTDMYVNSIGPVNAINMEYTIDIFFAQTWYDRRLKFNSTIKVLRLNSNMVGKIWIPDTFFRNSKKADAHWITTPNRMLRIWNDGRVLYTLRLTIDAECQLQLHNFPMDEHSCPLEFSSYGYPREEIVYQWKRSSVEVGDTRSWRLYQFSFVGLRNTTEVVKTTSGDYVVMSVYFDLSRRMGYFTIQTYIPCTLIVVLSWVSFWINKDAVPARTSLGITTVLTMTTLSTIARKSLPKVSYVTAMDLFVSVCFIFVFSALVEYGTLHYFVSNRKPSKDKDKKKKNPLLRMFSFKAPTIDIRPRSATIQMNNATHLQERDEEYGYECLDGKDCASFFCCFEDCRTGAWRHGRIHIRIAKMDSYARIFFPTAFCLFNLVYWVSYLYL
Description: (§1) Receptor functional & binding assays
(§2) Functional assays of all GABAA, NMDA (GluN2A–GluN2D) and AMPA (GluA2) receptor subunits were performed by SB Drug Discovery as a part of their CNS discovery panel using FLIPR technology. Briefly, receptor-expressing HEK 293 cell lines were incubated in a red membrane potential dye in HEPES:HBSS pH 7.4 buffer and the fluorescence (λex: 488, λex: 510–570) was monitored over time as the test compounds and/or reference compounds were added to the solution. In agonist assay, only test compounds were added. In positive allosteric modulator assay, cells were preincubated with test compounds and then low concentration (approximately EC20) of an appropriate agonist was added. In antagonist assay, cells were preincubated with test compounds and then high concentration (approximately EC80) of an appropriate agonist was added. For GABAA assays, GABA was used as the agonist, picrotoxin was used as the reference antagonist and allopregnanolone was used as the reference positive allosteric modulator (PAM). For NMDA assays, a mixture of glutamate, glycine and CaCl2 was used as the agonist, MK801 was the reference antagonist and pregnenolone sulfate or GNE 9278 were used as reference PAMs. For AMPA assays, glutamate was used as the agonist, CNQX was the reference antagonist and cyclothiazide was used as the reference PAM. All compounds were tested at 7 concentration points in triplicate and EC50/IC50 was determined where applicable. […]

[4] = biological target: T2, GABAA α3β1γ2 (Homo sapiens, UniProt P18505+P34903); experiment: FLIPR functional receptor assay, GABAA α3β1γ2; format: cell-based; settings: agonist mode; top test concentration 1 mM
T2 construct: host or cells: HEK 293
T2 sequence (P34903 29-492): as the sequence (P34903 29-492) above
T2 sequence (P18505 26-474): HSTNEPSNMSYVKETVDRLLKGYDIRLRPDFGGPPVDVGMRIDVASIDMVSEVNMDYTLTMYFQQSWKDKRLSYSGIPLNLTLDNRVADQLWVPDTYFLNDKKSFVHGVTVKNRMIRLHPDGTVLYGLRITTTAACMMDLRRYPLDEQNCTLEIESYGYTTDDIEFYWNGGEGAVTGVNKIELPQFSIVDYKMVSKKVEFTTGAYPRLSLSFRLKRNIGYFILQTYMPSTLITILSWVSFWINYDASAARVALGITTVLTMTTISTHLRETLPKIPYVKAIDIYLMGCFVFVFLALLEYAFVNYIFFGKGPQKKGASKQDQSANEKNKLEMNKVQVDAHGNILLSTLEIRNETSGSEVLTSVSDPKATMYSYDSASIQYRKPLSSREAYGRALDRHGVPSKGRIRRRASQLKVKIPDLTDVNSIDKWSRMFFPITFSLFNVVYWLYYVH
T2 sequence (P18507 40-475 partner): as the sequence (P18507 40-475 partner) above
Description: as §1
as §2, with “For AMPA assays, glutamate was used as the agonist, CNQX was the reference antagonist and cyclothiazide was used as the reference PAM.” left out

[5] = system: mouse cerebral synaptosomes; experiment: Synaptosomal neurotransmitter uptake assay; format: cell-based; settings: 10 μM substrate; for Transport into synaptosomes: 37 °C
Description: Mouse cerebral synaptosomes were prepared according to published methods. See Supplementary Methods for details. 500 μL aliquots of the synaptosome suspension were transferred to pre-chilled microcentrifuge tubes for experiments. Centrifugations were at 8000g for 4 min at 4 °C, unless stated otherwise, and all samples were stored at − 80 °C.
To each tube, 5 μL of a test compound solution (final concentration 10 μM) in Buffer KRP or Buffer KRP alone were added. Samples were incubated at 4 °C or 37 °C for 1, 10, or 30 min and then immediately centrifuged and washed twice by resuspension–centrifugation with Buffer S (0.5 mL). Resulting pellets were resuspended in 170 μL of 0.1% aqueous formic acid and mixed with 330 μL of ACN.
Buffer S (4 mL, × 1) and Buffer KRP (2 mL, × 3). The resulting pellet was resuspended in 3 mL of Buffer KRP and filtered on Ultrafree-CL 5 μm PVDF centrifugal device (1,000g for 4 min at 4 °C). The filtrate was diluted to 15 mL with ice cold Buffer KRP and kept on ice. The synaptosome preparation was used immediately in the following experiments.
Synaptosomal neurotransmitter uptake assay
96-well plate experiments: 250 μL aliquots of the synaptosome suspension were transferred to two 0.8-mL 96 well plates, one on ice (0 °C samples only) and one in a thermoblock (37 °C samples only), and equilibrated for 10 min. 5 μL of a test compound (0.5 mM; final concentration: 10 μM) in Buffer KRP or Buffer KRP blank were added 10, 20 or 30 min before the incubation termination. “0 min” samples were prepared by placing the test compound solution in a separate pre-chilled V-shape bottom 2-mL 96 well plate; at the end of incubation 200 μL aliquots of all samples were transferred to the 2-mL 96 well plate and centrifuged (2,500g for 15 min at 4 °C) immediately. The resulting pellets were rinsed with Buffer KRP, followed by centrifugation, twice, then resuspended in 200 μL of 60% ACN containing 2.5 μM Glu-d5 as internal standard and stored at –80 °C until analysis. […]

[6] = biological target: T3, GABAB (B1b/B2) (Homo sapiens, UniProt Q9UBS5); experiment: GABAB (B1b/B2) binding assay; settings: triplicate, read-out: % of radioligand binding inhibition, GABAB (B1b/B2)
T3 construct: purchased SB Drug Discovery (CNS discovery panel, FLIPR); Eurofins Discovery (Cerep)
T3 sequence (Q9UBS5 1-844 isoform Q9UBS5-2): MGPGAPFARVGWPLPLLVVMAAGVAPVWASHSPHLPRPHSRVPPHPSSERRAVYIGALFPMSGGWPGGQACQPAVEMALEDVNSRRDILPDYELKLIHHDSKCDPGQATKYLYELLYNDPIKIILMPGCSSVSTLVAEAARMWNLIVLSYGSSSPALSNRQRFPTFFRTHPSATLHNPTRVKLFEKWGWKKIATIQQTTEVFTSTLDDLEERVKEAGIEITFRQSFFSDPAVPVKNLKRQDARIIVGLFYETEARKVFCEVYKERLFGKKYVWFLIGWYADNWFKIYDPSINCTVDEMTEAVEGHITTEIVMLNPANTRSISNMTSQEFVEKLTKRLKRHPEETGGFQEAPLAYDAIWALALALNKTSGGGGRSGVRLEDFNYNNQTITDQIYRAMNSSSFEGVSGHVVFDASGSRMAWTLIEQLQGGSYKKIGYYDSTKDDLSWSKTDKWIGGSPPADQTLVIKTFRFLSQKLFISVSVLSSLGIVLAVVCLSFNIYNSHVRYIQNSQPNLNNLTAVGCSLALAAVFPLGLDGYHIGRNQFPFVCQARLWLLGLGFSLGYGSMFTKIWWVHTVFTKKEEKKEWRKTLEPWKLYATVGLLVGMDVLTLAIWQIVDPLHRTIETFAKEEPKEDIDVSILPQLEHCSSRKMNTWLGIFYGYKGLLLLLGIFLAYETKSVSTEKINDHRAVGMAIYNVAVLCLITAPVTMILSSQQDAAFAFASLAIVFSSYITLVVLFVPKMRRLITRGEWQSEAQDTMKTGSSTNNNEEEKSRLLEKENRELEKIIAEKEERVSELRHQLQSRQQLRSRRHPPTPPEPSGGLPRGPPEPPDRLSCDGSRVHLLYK
T3 sequence (O75899 42-941 partner): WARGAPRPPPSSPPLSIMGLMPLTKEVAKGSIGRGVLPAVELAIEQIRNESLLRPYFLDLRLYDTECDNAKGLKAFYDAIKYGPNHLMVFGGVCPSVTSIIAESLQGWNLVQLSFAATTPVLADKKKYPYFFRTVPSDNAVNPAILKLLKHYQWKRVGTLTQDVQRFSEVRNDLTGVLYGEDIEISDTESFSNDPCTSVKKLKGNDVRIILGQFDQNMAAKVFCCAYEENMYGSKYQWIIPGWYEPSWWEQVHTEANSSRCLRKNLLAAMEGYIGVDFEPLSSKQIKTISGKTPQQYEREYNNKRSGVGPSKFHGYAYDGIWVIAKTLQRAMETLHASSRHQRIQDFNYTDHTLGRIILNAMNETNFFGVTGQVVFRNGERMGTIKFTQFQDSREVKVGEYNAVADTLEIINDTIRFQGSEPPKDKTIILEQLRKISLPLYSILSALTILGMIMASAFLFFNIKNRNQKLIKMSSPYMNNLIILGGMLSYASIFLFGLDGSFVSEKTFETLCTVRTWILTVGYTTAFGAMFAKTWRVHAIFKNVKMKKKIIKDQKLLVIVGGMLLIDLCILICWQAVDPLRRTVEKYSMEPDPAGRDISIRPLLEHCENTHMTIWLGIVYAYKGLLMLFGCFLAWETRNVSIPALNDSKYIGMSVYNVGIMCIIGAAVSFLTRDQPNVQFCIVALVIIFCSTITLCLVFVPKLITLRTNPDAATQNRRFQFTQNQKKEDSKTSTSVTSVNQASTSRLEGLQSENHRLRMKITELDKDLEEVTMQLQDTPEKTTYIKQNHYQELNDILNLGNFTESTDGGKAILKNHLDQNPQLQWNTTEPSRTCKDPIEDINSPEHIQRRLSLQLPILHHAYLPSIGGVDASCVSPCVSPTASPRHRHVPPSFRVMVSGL
Description: mGluR1, mGluR2, mGluR5 and GABAB binding assays were performed by Eurofins Discovery. […]
mGluR5 and GABAB binding assays were performed using recombinant CHO-K1 cells and
[3H]CGP-54626 and [3H]quisqalic acid, respectively. All compounds were tested at a single
concentration of 100 uM in triplicate. […]

[7] = biological target: T4, GABAB (B1/B2) (Homo sapiens, UniProt Q9UBS5); experiment: Functional GABAB assay, Ca2+-dependent fluorimetry in RBL cells; format: cell-based; settings: 100 μM, triplicate
T4 construct: purchased SB Drug Discovery (CNS discovery panel, FLIPR); Eurofins Discovery (Cerep)
T4 sequence (Q9UBS5 20-961): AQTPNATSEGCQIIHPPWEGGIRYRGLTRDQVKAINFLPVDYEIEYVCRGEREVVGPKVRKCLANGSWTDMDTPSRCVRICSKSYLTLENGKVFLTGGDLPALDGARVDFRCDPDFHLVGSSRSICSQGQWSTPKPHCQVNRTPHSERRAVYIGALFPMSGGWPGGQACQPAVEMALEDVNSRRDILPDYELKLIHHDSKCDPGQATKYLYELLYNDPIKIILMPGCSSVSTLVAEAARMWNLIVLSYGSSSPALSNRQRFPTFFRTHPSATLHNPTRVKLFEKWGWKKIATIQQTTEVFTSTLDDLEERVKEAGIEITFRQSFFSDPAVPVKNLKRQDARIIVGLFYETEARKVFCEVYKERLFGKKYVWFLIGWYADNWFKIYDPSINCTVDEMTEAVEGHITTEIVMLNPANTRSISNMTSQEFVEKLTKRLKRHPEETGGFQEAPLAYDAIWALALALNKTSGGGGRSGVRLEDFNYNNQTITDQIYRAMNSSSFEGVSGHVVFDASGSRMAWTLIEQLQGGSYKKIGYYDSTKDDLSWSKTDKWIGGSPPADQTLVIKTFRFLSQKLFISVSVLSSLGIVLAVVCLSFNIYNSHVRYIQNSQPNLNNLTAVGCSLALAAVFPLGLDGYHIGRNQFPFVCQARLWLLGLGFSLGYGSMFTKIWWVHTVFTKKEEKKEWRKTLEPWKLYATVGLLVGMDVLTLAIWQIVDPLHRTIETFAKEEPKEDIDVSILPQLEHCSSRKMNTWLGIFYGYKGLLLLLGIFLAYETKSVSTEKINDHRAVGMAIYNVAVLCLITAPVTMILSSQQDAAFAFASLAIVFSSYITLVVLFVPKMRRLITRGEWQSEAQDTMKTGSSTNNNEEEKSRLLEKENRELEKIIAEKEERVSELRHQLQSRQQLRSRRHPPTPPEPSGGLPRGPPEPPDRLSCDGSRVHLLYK
T4 sequence (O75899 42-941 partner): as the sequence (O75899 42-941 partner) above

CC(N)(CCC(N)=O)C(=O)O (racemic) [rac-2MeGln, rac-2-methylglutamine]
Time of peak brain concentration [1]: 25 min

C[C@](N)(CCC(=O)O)C(=O)O [(S)-2MeGlu, (S)-2-methylglutamic acid]
% of radioligand binding inhibition, NMDA nonspec [2]: 3%
EC50 [3]: 725 µM
IC50 ([3]; antagonist mode): 978 µM
EC50 [4]: 782 µM
Synaptosomal uptake rate relative to the R enantiomer [5]: approximately threefold faster
Transport into synaptosomes [5]: transported into synaptosomes
inhibition at 100 µM [6]: 14%
Brain accumulation (with metabolite (S)-2MeGln) relative to (R)-2MeGlu [1]: as much as tenfold more
Maximum brain concentration [1]: 50 pmol/mg protein
Time of peak brain concentration [1]: 25 min
% of agonist response, GABAB (B1/B2) [7]: 0%

C[C@@](N)(CCC(=O)O)C(=O)O [(R)-2MeGlu, (R)-2-methylglutamic acid]
% of radioligand binding inhibition, NMDA nonspec [2]: 8%
EC50 [3]: 959 µM
EC50 [4]: 742 µM
Transport into synaptosomes [5]: transported into synaptosomes
inhibition at 100 µM [6]: 13%
Maximum brain concentration [1]: 30 pmol/mg protein
Time of peak brain concentration [1]: ≤ 5 min
half-life ([1]; C57BL/6, brain, estimated): ~1.17 h
% of agonist response, GABAB (B1/B2) [7]: 0%
